{"source": "patent US10487313B2", "about": "“Efficient induction of definitive endoderm from pluripotent stem cells” (Novo Nordisk A/S, priority 2011, dated 2019)", "assay_type_in_all_cases": "cell-based, human", "key": {"[1]": {"tested_on": "hES cells (SA121) in mTeSR culture system", "experiment": "Immunostainings and OCT4/SOX17+ cell quantification in the mTeSR system", "details": "Chir 7 μM or D'Amour", "description": "hES cells (SA121) were cluster passaged from feeders (MEFs) to Matrigel (BD Biosciences) in mTeSR1 media ([…]) and passaged further with Dispase (BD Biosciences) according to the culture system protocol. DE was initiated once clusters started to touch each other Confluent cultures were washed once in RPMI1640 (Invitrogen) before 24 hour pre-treatment with 0,5-7μM CHIR99021 (Stemgent) in RPMI. Control cells were left untreated in RPMI and D'Amour cells were either left in RPMI or treated with AA (Peprotech)+Wnt3a (R&D Systems) without pre-treatment depending on experimental setup. After 24 hours, pretreated and control cells were washed once with RPMI before adding 100 ng/ml AA in RPMI. D'Amour cells were also treated with 100 ng/ml AA but with 0,2% FBS instead of B27. 24 h later, 2% B27 (Invitrogen) was added to the AA media for 2-3 d. Control cells were treated with B27 to prevent cell death and D'Amour cells with 2% FBS according to published protocol. Media was changed every day. Cells were washed in PBS+/+ and fixed in 4% formaldehyde for 30 min (10% formaline, VWR). The cells were then washed again three times in PBS and left in PBS (4° C.) until staining. Fixed cells were washed with PBS once, then permeabilized with 0.5% Triton X-100 in PBS for 6 min, washed in PBS and blocked with TNB buffer (0.1 M Tris-HCL pH 7.5, 0.15 M NaCl, 0.5% Blocking Reagent (Perkin Elmer)) for 30 min. Primary antibodies (goat-anti-SOX17 (AF1924, RnD Systems); goat-anti-Brachyury (AF2085, RnD Systems); mouse-anti-OCT4 (sc5279, SantaCruz Biotechnology); goat-anti-PDX1 (AB47383, Abcam)) were added in 0.1% TritonX-100+PBS for 1 h in RT or 4° C. O/N. After a thorough washing step in PBS, secondary antibodies were added together with DAPI in 0.1% Triton X-100+PBS for 45 min at RT, washed thoroughly in PBS and left in PBS until photodocumentation."}, "SA121 and chIPS cells": {"tested_on": "SA121 and chIPS cells", "experiment": "CHIR dose dependency: cell survival after titration and AA treatment", "details": "then 2 d AA", "description": "Brachyury expression was analysed after 24 h treatment in SA121 (FIG. 7A) and chIPS cells (FIG. 7C). SOX17 expression was analysed D3 in SA121 (FIG. 7B) and chIPS cells (FIG. 7D)).\nConfluent cultures were washed once in RPMI1640 (Invitrogen) before 24 hour pre-treatment with 0,5-7μM CHIR99021 (Stemgent) in RPMI. Control cells were left untreated in RPMI and D'Amour cells were either left in RPMI or treated with AA (Peprotech)+Wnt3a (R&D Systems) without pre-treatment depending on experimental setup.\nChir was titrated at concentrations between 1-7 uM and analyzed after 24 h Chir treatment (D1) and after 2 d of following AA treatment (D3)."}, "chIPS4 cells": {"tested_on": "chIPS4 cells", "experiment": "Further differentiation of DE towards pancreatic endoderm, PDX1 by ICC and real-time PCR", "details": "seven days after induction of PE differentiation", "description": "When cells were further differentiated to PE, the DE protocol was applied in T75 cell culture flasks and reseeded after 4 d of DE culture at a density of 200 K in DE media. 1 d later, cells were washed once before addition of PE media (RPMI1640+12% KOSR+64 ng/ml bFGF) according to published protocol (Amen et al 2010). RNA samples were collected after 24 h pre-treatment (D1), after 1 day of AA treatment (D2) and after 1-2 d of AA+B27 treatment (D3-4). Total RNA was extracted with the Rneasy Plus Mini kit (Qiagen) and quantitative real-time PCR was performed using the StepOnePLus system (Applied Biosystems). Cells were washed in PBS+/+ and fixed in 4% formaldehyde for 30 min (10% formaline, VWR). The cells were then washed again three times in PBS and left in PBS (4° C.) until staining. Fixed cells were washed with PBS once, then permeabilized with 0.5% Triton X-100 in PBS for 6 min, washed in PBS and blocked with TNB buffer (0.1 M Tris-HCL pH 7.5, 0.15 M NaCl, 0.5% Blocking Reagent (Perkin Elmer)) for 30 min. […] Seven days after the induction of PE differentiation the cells were fixed and analyzed by ICC using a PDX1 specific antibody. […] In parallel, mRNA was collected from the cells and the PDX1 expression was analyzed by real-time PCR. […]"}}, "data": [{"smiles": "Cc1c[nH]c(-c2cnc(NCCNc3ccc(C#N)cn3)nc2-c2ccc(Cl)cc2Cl)n1", "note": "[CHIR, CHIR99021]", "values": [{"measurement": "Oct4+ cell quantification", "setting": "[1]; D3, Exp ME16b", "result": 6.97}, {"measurement": "Sox17+ cell quantification", "setting": "[1]; D3, Exp ME16b", "result": 62.62}, {"measurement": "Oct4+ cell quantification", "setting": "[1]; D3, Exp ME18b", "result": 2.53}, {"measurement": "Sox17+ cell quantification", "setting": "[1]; D3, Exp ME18b", "result": 82.87}, {"measurement": "Oct4+ cell quantification", "setting": "[1]; D3, Exp ME21a", "result": 0.95}, {"measurement": "Sox17+ cell quantification", "setting": "[1]; D3, Exp ME21a", "result": 91.36}, {"measurement": "Oct4+ cell quantification", "setting": "[1]; D3, Mean of three experiments", "result": 3.5}, {"measurement": "Sox17+ cell quantification", "setting": "[1]; D3, Mean of three experiments", "result": 79.0}, {"measurement": "cell survival D3", "setting": "SA121 and chIPS cells; CHIR 7 uM 24 h", "result": "did not survive d3"}, {"measurement": "cell survival D3", "setting": "SA121 and chIPS cells; CHIR 0.5-1 uM 24 h", "result": "did not survive d3"}, {"measurement": "PDX1 mRNA expression by real-time PCR", "setting": "chIPS4 cells", "result": "clear expression"}, {"measurement": "PDX1 staining by ICC", "setting": "chIPS4 cells", "result": "evident"}]}]}
